Measured values: patent publication US20220401465A1, “USES OF NAD+ AND/OR NAD+ INHIBITORS AND/OR NAD+ AGONISTS AND COMBINATION PREPARATION THEREOF” (ShanghaiTech University, priority 2019, published 2022)

How the values were obtained:
[1] = system: K562-CD19-mCherry-luciferase cells; experiment: Subcutaneous K562-CD19-mCherry-luciferase solid tumor model in NSG mice, in vivo imaging and survival; conditions: NAM alone i.p. daily 100 μL at 1 g/ml in saline, versus saline, n=5
Protocol: In cells with K562-CD19-mCherry, as described previously, luciferase was then overexpressed through the lentiviral system. […] Since subcutaneously injected K562 cells also overexpressed Luciferase, intracellular fluorescence can be excited after intraperitoneal injection of the substrate luciferin (PerkinElmer 122799) in mice, and tumor growth in mice can be collected by in vivo imaging. Before CAR-T cells were injected into the tail vein of mice, the fluorescence signal intensity of mouse tumor cells was detected as the starting point, and then the fluorescence intensity of mouse tumor cells was detected every 7 days. For detection, the mice were intraperitoneally injected with 150 μL of D-luciferin potassium salt at a concentration of 10 mg/ml, and 10 minutes later, the fluorescence of tumor cells was detected using IVIS® LuminaIII small animal in vivo imaging system. The stronger the fluorescence, the more tumor cells and the faster the tumor growth.

T cells in PBMC [2] = experiment: Intracellular tyrosine phosphorylation after anti-CD3/CD28 activation of PBMC (WB, 4G10 antibody); format: cell-based, human; conditions: 1 μM FK866 24 h, then CD3/CD28 antibody stimulation 5 min, versus solvent
Protocol: (§1) Human peripheral blood mononuclear cells (PBMC) were diluted 1:1 with fresh blood and normal saline (Meilun Biological MA0083) and then added flat to the upper layer of an equal volume of Histopaque®-1077 (Sigma10771) separation solution. The cells were centrifuged slowly for 30 min at 500 g at room temperature. After centrifugation, the white membrane layer between the plasma and the separation solution was imbibed and washed with normal saline. After repeated washing, the cells were resuspended with 10% FBS (Thermofisher 10099141C) RPMI (Corning10-040-CV) medium for later use.
(§2) The concentration of PBMC cells was adjusted to no more than 0.5 million/ml, and the final concentration of 1 μM FK866 (Selleck S2799), 100 μM NAD+ (Selleck S2518), or 1μM FK866, and 100 μM NAD+ were added respectively. The cells after drug addition were cultured in a cell incubator for 24 hours at 37° C., with 5% CO2.
Highly adsorbed 96-well plates were coated with CD28 (Biolegend 102112), and CD3 (Thermofisher 14-0037-82) antibodies at the final concentration of 0 or 3 μg/ml, the PBMC cells treated with the above different treatments were added to the well plates, respectively. […] WB testing: after cell collection, the cells were lysed to extract proteins, which were then electrophoretically transferred and detected with 4G10 antibody (Millipore16-103) for anti-Phosphotyrosine testing. […]

T cells in PBMC [3] = experiment: CD69 expression on T cells after anti-CD3/CD28 activation of PBMC (flow cytometry); format: cell-based, human
Protocol: as §1, §2
Highly adsorbed 96-well plates were coated with CD28 (Biolegend 102112), and CD3 (Thermofisher 14-0037-82) antibodies at the final concentration of 0 or 3 μg/ml, the PBMC cells treated with the above different treatments were added to the well plates, respectively. After 24 h stimulation, the cells were collected for CD69 staining. […] After washing with Staining buffer, the cells were resuspended with staining buffer containing DAPI and then detected on BD LSRFortessa. […]

SMILES	effect on the fluorescence intensity and tumor growth of tumor cells [1]	intracellular phosphorylation levels (tyrosine) (T cells in PBMC [2])	CD69 on the surface of T cells (T cells in PBMC [3]; PBMC, 1 μM FK866 24 h, then CD3/CD28 antibody stimulation 24 h, versus solvent)	T cell activation ability (T cells in PBMC [3]; concluded from CD69 and phosphorylation levels when NAD+ synthesis was inhibited)
NC(=O)c1cccnc1 [Nicotinamide (NAM), Nicotinamide]	no significant effect	–	–	–
O=C(/C=C/c1cccnc1)NCCCCC1CCN(C(=O)c2ccccc2)CC1 [FK866]	–	significantly reduced	significantly reduced	significantly decreased
